# Earlier results in US5084277A, “Vaginal progesterone tablet” (priority 1990, dated 1992).
# Columns and labels:
# [1] = not given; remark: listed apart in the source
smiles,measurement,setting,value
"CC(=O)[C@H]1CC[C@H]2[C@@H]3CCC4=CC(=O)CC[C@]4(C)[C@H]3CC[C@]12C [progesterone, pregn-4-ene-3,20-dione]",Plasma half-life of endogenous progesterone,endogenous,a few minutes
same,Storage of progesterone in body fat,in vivo,A small amount of progesterone is stored in body fat
same,Time within which all exogenous progesterone is metabolized,suggested by Myers et al.,≤ 24 h
same,Tolerability of parenteral administration,[1]; deep intramuscular injections,often very painful and irritating at the site of injection
same,Serum levels after oral administration,"[1]; in vivo, po",significant but highly variable serum levels
same,Absorption by the rectal route,[1]; rectal,highly variable
